Laboratory results: publication PMC8698377, “In Vitro Hepatic Assessment of Cineole and Its Derivatives in Common Brushtail Possums (Trichosurus vulpecula) and Rodents” (Biology, 2021)

Legend:
[1] = system: CYP3A; assay: CYP3A catalytic activity (erythromycin-N-demethylation), mouse hepatic microsomes; assay type: in vitro ADME; settings: for activity at 30 min, 12.5 µM / activity at 30 min, 25 µM: read-out: CYP3A catalytic activity, % of Control
Procedure: (§1) Microsomal preparation was as previously outlined. Individual livers were placed in beakers containing 1.15% KCl. All the procedures were carried out at 0–4 °C. The liver samples were minced and homogenised in buffer A (0.1 M Tris, 0.1 M potassium chloride, 1 mM EDTA, and 20 μM butylated hydroxytoluene, at pH = 7.4) using the Teflon-glass homogeniser (5–6 vertical passes). The samples were centrifuged for 20 min at 10,000× g. The supernatant was then transferred into another set of centrifuge tubes and spun for 60 min at 100,000× g. The pellet was resuspended in Buffer B (0.1 M potassium pyrophosphate, 1 mM EDTA, and 20 μM butylated hydroxytoluene, at pH = 7.4), homogenised and recentrifuged for 60 min at 100,000× g. Finally, the pellet was homogenised in 1–2 mL of Buffer C (10 mM Tris-HCl, 1 mM EDTA, and 4% glycerol (v/v)) and stored at […] until used. The protein concentration of the microsomes was determined using the Bicinchoninic acid (BCA) method.
(§2) CYP3A catalytic activity was determined using the erythromycin-N-demethylation activity assay as described previously. The reaction mixture (final volume of 1 mL and final protein concentration of 1 mg) contained 500 µL of microsomes in 0.1 M phosphate buffer (pH = 7.4), 400 µL of erythromycin buffer (0.45 mM), and 50 µL of the test compound was pre-warmed at 37 °C for 2 min. The reaction was initiated with 50 µL of 2.5 mM […] and incubated at 37 °C for 30 min (optimised incubation time). The reaction was stopped with the addition of 330 µL of 15% zinc sulphate. Tubes were vortexed and left for 5 min (at room temperature) and then 330 µL of saturated barium hydroxide was added. Tubes were further vortexed and left for 5 min (at room temperature). Tubes were then centrifuged at 1800 g for 10 min. To 830 µL of the supernatant, 330 µL of Nash reagent (30% (w/v) ammonium acetate, 0.4% (v/v) acetyl acetone) was added and further incubated at 60 °C for 30 min. The blank tube contained 330 µL of Nash reagent and 830 µL of Milli-Q-water. The tubes were centrifuged again at 1800× g for 10 min and the absorbance was read at 415 nm. Results presented are the mean ± SEM of 3 independent experiments conducted in duplicate.

[2] = system: CYP3A; assay: CYP3A catalytic activity (erythromycin-N-demethylation), rat hepatic microsomes; assay type: in vitro ADME; settings: for activity at 30 min, 12.5 µM / activity at 30 min, 25 µM: liver microsomes, pH 7.4, probe erythromycin, read-out: CYP3A catalytic activity, % of Control
Procedure: as §1, §2

[3] = system: CYP3A; assay: CYP3A catalytic activity (erythromycin-N-demethylation), possum hepatic microsomes; assay type: in vitro ADME, possum (Trichosurus vulpecula); settings: for activity at 30 min, 12.5 µM / activity at 30 min, 25 µM: possum (Trichosurus vulpecula), liver microsomes, pH 7.4, probe erythromycin, read-out: CYP3A catalytic activity, % of Control
Procedure: as §1, §2

[4] = system: UGT; assay: p-nitrophenol glucuronidation, mouse hepatic microsomes; assay type: in vitro ADME
Procedure: as §1
(§3) The rate of p-nitrophenol glucuronidation was determined as previously reported. In short, the incubation mixture (500 µL in total) contained; 100 µL of 1 mg/mL microsomes, 50 µL of 1 M Tris-HCl (pH = 7.4), 20 µL of 0.25% (v/v) Triton-X 100, 50 µL of 50 mM MgCl2, 130 µL of double distilled water, 50 µL of 5 mM p-nitrophenol, 50 µL of the test compound, and 50 µL of uridine 5′-diphosphoglucuronic acid trisodium salt (UDPGA). The blank tubes had all components except UDPGA and microsomes; instead, 150 µL of 0.1 M phosphate buffer was added to equal the volume as the reaction mixture. The reaction mixture and the blank were incubated at 37 °C for 2 min. Then, 50 µL of 30 mM UDPGA was added to initiate the reaction which proceeded at 37 °C for 30 min (optimised incubation time). The reaction was stopped using 1 mL of 5% trichloroacetic acid (TCA). The tubes were centrifuged at 1800 g for 10 min and then 1 mL of supernatant was added to 250 µL of 2 M sodium hydroxide (NaOH). The absorbance was read at 405 nm. The sample reading was subtracted from the blank absorbance and divided by the extinction coefficient of p-nitrophenol ([…]) and the light path of the spectrophotometer (1 cm). The glucuronidation activities are expressed in µmol/mg/min and are the mean ± SEM of 3 independent experiments conducted in duplicate.

[5] = system: UGT; assay: p-nitrophenol glucuronidation, rat hepatic microsomes; assay type: in vitro ADME
Procedure: as §1, §3

[6] = system: UGT; assay: p-nitrophenol glucuronidation, possum hepatic microsomes; assay type: in vitro ADME, possum (Trichosurus vulpecula)
Procedure: as §1, §3

[7] = system: humans; design: method as in PMID 7651249; settings: cited from earlier work
[8] = system: dogs; settings: cited from earlier work
[9] = system: mice; design: method as in earlier work; settings: cited from earlier work
[10] = system: rats; design: method as in PMID 6068552; settings: cited from earlier work
[11] = system: possums; design: method as in doi:10.1023/A:1020863216892; settings: cited from earlier work
[12] = system: CYP enzymes (preferably CYP3A); design: method as in PMID 11465406; settings: possums; cited from earlier work
[13] = system: CYP3A; settings: possum vs human liver microsomes; cited from earlier work
[14] = liver microsomes, pH 7.4, probe erythromycin, 12.5 µM
[15] = liver microsomes, pH 7.4, probe erythromycin, 25 µM

Structure (SMILES)	CYP3A catalytic activity ([1]; 12.5 µM)	CYP3A catalytic activity ([1]; 25 µM)	activity at 30 min, 12.5 µM [1, 14]	activity at 30 min, 25 µM [1, 15]	CYP3A catalytic activity ([2]; 12.5 µM)	CYP3A catalytic activity ([2]; 25 µM)	activity at 30 min, 12.5 µM ([2]; 12.5 µM)	activity at 30 min, 25 µM ([2]; 25 µM)	CYP3A catalytic activity ([3]; 12.5 µM)	CYP3A catalytic activity ([3]; 25 µM)	activity at 30 min, 12.5 µM ([3]; 12.5 µM)	activity at 30 min, 25 µM ([3]; 25 µM)	p-nitrophenol glucuronidation activity ([4]; 12.5 µM)	p-nitrophenol glucuronidation, % of Control ([4]; 12.5 µM)	p-nitrophenol glucuronidation activity ([4]; 25 µM)	p-nitrophenol glucuronidation, % of Control ([4]; 25 µM)	p-nitrophenol glucuronidation activity ([5]; 12.5 µM)	p-nitrophenol glucuronidation, % of Control ([5]; 12.5 µM)	p-nitrophenol glucuronidation activity ([5]; 25 µM)	p-nitrophenol glucuronidation, % of Control ([5]; 25 µM)	also measured
CC12CCC(CC1=O)C2(C)C (stereo not shown) [Camphor, camphor]	0.68 ± 0.02 nmol/mg/min	0.68 ± 0.03 nmol/mg/min	97.1 ± 2.15%	96.3 ± 3.21%	0.63 ± 0.03 nmol/mg/min	0.59 ± 0.04 nmol/mg/min	101 ± 3.99%	95 ± 1.81%	0.40 ± 0.03 nmol/mg/min	0.41 ± 0.03 nmol/mg/min	102 ± 2.05%	104 ± 2.57%	2.42 ± 0.08 µmol/mg/min	104.80 ± 1.79%	2.31 ± 0.09 µmol/mg/min	100.10 ± 2.45%	2.62 ± 0.09 µmol/mg/min	102.59 ± 1.43%	2.72 ± 0.24 µmol/mg/min	106.26 ± 6.99%	p-nitrophenol glucuronidation activity ([6]; 12.5 µM): 4.01 ± 0.33 µmol/mg/min; p-nitrophenol glucuronidation, % of Control ([6]; 12.5 µM): 102.42 ± 1.78%; p-nitrophenol glucuronidation activity ([6]; 25 µM): 3.97 ± 0.33 µmol/mg/min; p-nitrophenol glucuronidation, % of Control ([6]; 25 µM): 101.32 ± 1.34%
CC12CCC(CC1)C(C)(C)O2 [Cineole, 1,3,3-trimethyl-2-oxabicyclo [2.2.2]octane]	0.68 ± 0.02 nmol/mg/min	0.64 ± 0.02 nmol/mg/min	101 ± 2.93%	94.5 ± 2.69%	0.64 ± 0.05 nmol/mg/min	0.65 ± 0.05 nmol/mg/min	101 ± 2.31%	101 ± 1.62%	0.40 ± 0.01 nmol/mg/min	0.41 ± 0.01 nmol/mg/min	99.5 ± 2.67%	101.9 ± 0.29%	2.00 ± 0.16 µmol/mg/min	100.36 ± 1.99%	1.90 ± 0.16 µmol/mg/min	94.21 ± 1.51%	2.46 ± 0.12 µmol/mg/min	90.25 ± 6.49%	2.67 ± 0.21 µmol/mg/min	98.18 ± 9.75%	activity at 30 min, 50 µM ([1]; liver microsomes, pH 7.4, probe erythromycin, 50 µM, read-out: CYP3A catalytic activity, % of control): 89.3%; inhibition of CYP3A catalytic activity ([2]; 50 µM): no major inhibition; inhibition of CYP3A catalytic activity ([3]; 50 µM): no major inhibition; inhibition of p-nitrophenol glucuronidation ([4]; 50 µM): failed to significantly inhibit; inhibition of p-nitrophenol glucuronidation ([5]; 50 µM): failed to significantly inhibit; p-nitrophenol glucuronidation activity ([6]; 12.5 µM): 4.09 ± 0.18 µmol/mg/min; p-nitrophenol glucuronidation, % of Control ([6]; 12.5 µM): 99.39 ± 1.71%; p-nitrophenol glucuronidation activity ([6]; 25 µM): 4.18 ± 0.13 µmol/mg/min; p-nitrophenol glucuronidation, % of Control ([6]; 25 µM): 101.80 ± 1.12%; inhibition of p-nitrophenol glucuronidation ([6]; 50 µM): failed to significantly inhibit; toxic dose following ingestion [7]: < 1000 mg/kg; toxic dose following ingestion [8]: 1500 mg/kg; toxic dose following ingestion [9]: 50 mg/kg; toxic dose following ingestion [10]: 2500 mg/kg; toxic dose following ingestion [11]: 3600 mg/kg; share of total intrinsic clearance, 3-hydroxycineole [12]: 14%; share of total intrinsic clearance, 7-hydroxycineole [12]: 11%; share of total intrinsic clearance, conversion to 9-hydroxycineole [12]: 75%
C[C@]12CC(=O)C[C@@]1(C)CC(=O)C2 [cis-1,5-dimethylbicyclo[3.3.0]octane-3,7-dione]	0.71 ± 0.03 nmol/mg/min	0.70 ± 0.03 nmol/mg/min	101 ± 2.7%	99.64 ± 0.93%	0.59 ± 0.04 nmol/mg/min	0.60 ± 0.06 nmol/mg/min	98.3 ± 3.1%	99.3 ± 1%	0.41 ± 0.02 nmol/mg/min	0.40 ± 0.03 nmol/mg/min	106 ± 1.42%	103 ± 6.11%	2.56 ± 0.11 µmol/mg/min	102.19 ± 2.82%	2.40 ± 0.15 µmol/mg/min	95.72 ± 2.42%	2.58 ± 0.03 µmol/mg/min	98.32 ± 3.38%	2.56 ± 0.02 µmol/mg/min	97.79 ± 2.87%	p-nitrophenol glucuronidation activity ([6]; 12.5 µM): 3.77 ± 0.28 µmol/mg/min; p-nitrophenol glucuronidation, % of Control ([6]; 12.5 µM): 93.15 ± 4.58%; p-nitrophenol glucuronidation activity ([6]; 25 µM): 3.78 ± 0.28 µmol/mg/min; p-nitrophenol glucuronidation, % of Control ([6]; 25 µM): 93.30 ± 4.13%
COC(=O)[C@H]1CC[C@H](C(=O)OC)CC1 [dimethyl-trans-cyclohexane-1,4-dicarboxylate]	0.72 ± 0.02 nmol/mg/min	0.77 ± 0.05 nmol/mg/min	100 ± 1.31%	106 ± 4.88%	0.64 ± 0.02 nmol/mg/min	0.73 ± 0.06 nmol/mg/min	102 ± 2.42%	116 ± 5.35%	0.39 ± 0.02 nmol/mg/min	0.42 ± 0.03 nmol/mg/min	102 ± 4.76%	111 ± 6%	2.43 ± 0.06 µmol/mg/min	107.00 ± 0.42%	2.73 ± 0.12 µmol/mg/min	120.23 ± 8.23 %	2.71 ± 0.13 µmol/mg/min	90.77 ± 2.49%	2.83 ± 0.20 µmol/mg/min	94.83 ± 5.80%	p-nitrophenol glucuronidation activity ([6]; 12.5 µM): 3.96 ± 0.20 µmol/mg/min; p-nitrophenol glucuronidation, % of Control ([6]; 12.5 µM): 102.94 ± 4.63%; p-nitrophenol glucuronidation activity ([6]; 25 µM): 3.92 ± 0.19 µmol/mg/min; p-nitrophenol glucuronidation, % of Control ([6]; 25 µM): 101.67 ± 0.92%
Cc1ncc2n1-c1ccc(Cl)cc1C(c1ccccc1F)=NC2 [midazolam]	–	–	–	–	–	–	–	–	–	–	–	–	–	–	–	–	–	–	–	–	Vmax of 1′-hydroxylmiazolam, fold lower in possum than in human liver microsomes [13]: 8 fold; Vmax of 4-hydroxymidazolam, fold lower in possum than in human liver microsomes [13]: 23 fold
